Test results as given in ChEMBL document CHEMBL1201862, “PubChem BioAssay data set” (2004).
Active and inactive are the calls of the source.

How the values were obtained:
Troponin, cardiac muscle = Troponin, cardiac muscle (Homo sapiens, UniProt P19429+P45379+P63316); test: Fluorescence-based biochemical high throughput dose response assay for activators of the calcium sensitivity of cardiac Regulated Thin Filaments (RTF). [Related pubchem assays (depositor defined):AID493008, AID493018, AID504382, AID504383]; assay type: protein-complex assay
Cannabinoid receptor 2 [1] = target: T1, Cannabinoid receptor 2 (Homo sapiens, UniProt P34972); test: SAR analysis of agonists of the Cannabinoid Receptor 2 using an Image-Based Assay - Set 2. [Related pubchem assays (depositor defined):AID1961, AID1965]; assay type: functional
Cannabinoid receptor 1 [2] = target: T2, Cannabinoid receptor 1 (Homo sapiens, UniProt P21554); test: SAR analysis of antagonists of the Cannabinoid Receptor 1 using an Image-Based Assay - Set 3. [Related pubchem assays (depositor defined):AID1961, AID1965]; assay type: functional
[3] = target: T3, G-protein coupled receptor 55 (Homo sapiens, UniProt Q9Y2T6); test: SAR analysis of selective Agonists of GPR55 using an Image-Based Assay - Set 2. [Related pubchem assays (depositor defined):AID1961, AID1965]; assay type: functional
Major prion protein = Major prion protein (Homo sapiens, UniProt P04156); assay type: functional, cell-based
Cannabinoid receptor 2 [4] = target: T1, Cannabinoid receptor 2; test: SAR analysis of antagonists of the Cannabinoid Receptor 2 using an Image-Based Assay - Set 2. [Related pubchem assays (depositor defined):AID1961, AID1965]; assay type: functional
Cannabinoid receptor 1 [5] = target: T2, Cannabinoid receptor 1; test: SAR analysis of agonists of the Cannabinoid Receptor 1 using an Image-Based Assay - Set 3. [Related pubchem assays (depositor defined):AID1961, AID1965]; assay type: functional
[6] = target: T4, G-protein coupled receptor 35 (Homo sapiens, UniProt Q9HC97); test: SAR analysis of Agonists of the GPR35 Receptor using an Image-Based Assay - Set 3. [Related pubchem assays (depositor defined):AID1961, AID1965]; assay type: functional
[7] = target: T4, G-protein coupled receptor 35; test: SAR analysis of Antagonists of the GPR35 Receptor using an Image-Based Assay - Set 4. [Related pubchem assays (depositor defined):[…]]; assay type: functional
Cannabinoid receptor 2 [8] = target: T1, Cannabinoid receptor 2; test: SAR analysis of agonists of the Cannabinoid Receptor 2 using an Image-Based Assay - Set 3. [Related pubchem assays (depositor defined):AID2013, AID2026]; assay type: functional
Cannabinoid receptor 1 [9] = target: T2, Cannabinoid receptor 1; test: SAR analysis of antagonists of the Cannabinoid Receptor 1 using an Image-Based Assay - Set 4. [Related pubchem assays (depositor defined):AID2013, AID2026]; assay type: functional
[10] = target: T4, G-protein coupled receptor 35; test: SAR analysis of Antagonists of the GPR35 Receptor using an Image-Based Assay - Set 6. [Related pubchem assays (depositor defined):AID2013, AID2026]; assay type: functional
[11] = target: T4, G-protein coupled receptor 35; test: SAR analysis of Agonists of the GPR35 Receptor using an Image-Based Assay - Set 4. [Related pubchem assays (depositor defined):AID2013, AID2026]; assay type: functional
Cannabinoid receptor 2 [12] = target: T1, Cannabinoid receptor 2; test: SAR analysis of antagonists of the Cannabinoid Receptor 2 using an Image-Based Assay - Set 3. [Related pubchem assays (depositor defined):AID2013, AID2026]; assay type: functional
Cannabinoid receptor 1 [13] = target: T2, Cannabinoid receptor 1; test: SAR analysis of agonists of the Cannabinoid Receptor 1 using an Image-Based Assay - Set 4. [Related pubchem assays (depositor defined):AID2013, AID2026]; assay type: functional
[14] = target: T3, G-protein coupled receptor 55; test: SAR Analysis of Selective Antagonists of GPR55 using an Image-Based Assay - Set 4. [Related pubchem assays (depositor defined):AID2013, AID2026]; assay type: functional
[15] = target: T5, Sphingosine 1-phosphate receptor 4 (Homo sapiens, UniProt O95977); test: Late-stage fluorescence dose response cell-based assay to identify agonists of the Sphingosine 1-Phosphate Receptor 4 (S1P4): purchased compounds EC50. [Related pubchem assays (depositor defined):AID1509, AID1523, AID1563, AID1686, AID1701, AID1801]; assay type: functional
T5 sequence (O95977 whole entry): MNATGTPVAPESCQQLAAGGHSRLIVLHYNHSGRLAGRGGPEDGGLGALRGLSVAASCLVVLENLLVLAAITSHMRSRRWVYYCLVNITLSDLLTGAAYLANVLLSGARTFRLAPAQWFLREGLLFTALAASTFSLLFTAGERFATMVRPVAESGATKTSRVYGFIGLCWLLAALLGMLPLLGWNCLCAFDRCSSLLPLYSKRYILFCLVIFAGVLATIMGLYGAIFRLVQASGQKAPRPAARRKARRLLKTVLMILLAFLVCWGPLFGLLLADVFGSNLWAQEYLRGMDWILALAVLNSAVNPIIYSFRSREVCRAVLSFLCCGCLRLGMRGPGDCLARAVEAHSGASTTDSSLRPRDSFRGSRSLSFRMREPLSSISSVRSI

[16] = target: T6, Tyrosine-protein phosphatase non-receptor type 7 (Homo sapiens, UniProt P35236); test: HePTP (PTPN7) phosphatase inhibitor potency, SAR follow-up, biochemical, set 2 (AID 449736); assay type: functional
T6 sequence (P35236 whole entry): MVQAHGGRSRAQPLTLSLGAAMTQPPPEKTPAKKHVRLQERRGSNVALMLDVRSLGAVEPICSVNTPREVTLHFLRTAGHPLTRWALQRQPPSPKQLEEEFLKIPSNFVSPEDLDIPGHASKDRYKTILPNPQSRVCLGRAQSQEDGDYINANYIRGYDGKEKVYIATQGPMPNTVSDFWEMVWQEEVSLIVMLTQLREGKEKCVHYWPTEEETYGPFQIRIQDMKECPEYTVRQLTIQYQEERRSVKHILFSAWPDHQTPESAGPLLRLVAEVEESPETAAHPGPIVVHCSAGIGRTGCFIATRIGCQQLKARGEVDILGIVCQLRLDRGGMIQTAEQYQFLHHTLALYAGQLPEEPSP

[17] = target: Tyrosine-protein phosphatase non-receptor type 12 (Homo sapiens, UniProt Q05209); test: SAR Selectivity Analysis of small molecule inhibitors of PEST using pCAP in a fluorescence assay. [Related pubchem assays (depositor defined):AID1779, AID1784, AID2135]; assay type: functional
[18] = cytotoxicity in HEK-293T cells, dose response, cytotoxicity control for TCR NF-kB inhibitor project, luminescence, T-cell screen hits (AID 489026); assay type: functional, cell-based;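 note: cells exposed to compound about 14 hours before the viability readout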
[19] = target: T7, Tyrosine-protein phosphatase non-receptor type 22 (Homo sapiens, UniProt Q9Y2R2); test: SAR LYP1 Fluorescent Assay using OMFP substrate for In Vitro dose response studies - Set 3. [Related pubchem assays (depositor defined):AID1779, AID1784, AID2140, AID2686]; assay type: functional
T7 sequence (Q9Y2R2 whole entry): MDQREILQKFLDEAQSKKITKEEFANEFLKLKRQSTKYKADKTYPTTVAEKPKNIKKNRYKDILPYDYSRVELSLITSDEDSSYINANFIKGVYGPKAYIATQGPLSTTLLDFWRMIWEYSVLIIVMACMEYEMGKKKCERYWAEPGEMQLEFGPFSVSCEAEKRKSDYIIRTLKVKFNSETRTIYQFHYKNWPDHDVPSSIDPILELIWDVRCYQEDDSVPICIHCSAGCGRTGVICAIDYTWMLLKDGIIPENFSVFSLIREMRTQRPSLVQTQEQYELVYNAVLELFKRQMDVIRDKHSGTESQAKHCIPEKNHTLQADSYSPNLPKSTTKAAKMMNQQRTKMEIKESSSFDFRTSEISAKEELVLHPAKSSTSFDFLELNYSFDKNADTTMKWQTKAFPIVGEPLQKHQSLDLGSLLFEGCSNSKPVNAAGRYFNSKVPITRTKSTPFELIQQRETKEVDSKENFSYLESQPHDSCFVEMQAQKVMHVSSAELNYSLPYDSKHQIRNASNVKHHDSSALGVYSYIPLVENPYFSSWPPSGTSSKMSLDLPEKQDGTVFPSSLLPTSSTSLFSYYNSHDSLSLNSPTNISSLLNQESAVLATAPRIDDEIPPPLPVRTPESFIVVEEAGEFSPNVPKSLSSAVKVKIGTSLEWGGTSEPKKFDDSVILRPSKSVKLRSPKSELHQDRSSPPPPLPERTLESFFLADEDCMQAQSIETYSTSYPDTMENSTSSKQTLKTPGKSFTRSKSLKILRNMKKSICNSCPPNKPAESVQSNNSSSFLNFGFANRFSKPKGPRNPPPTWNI

J774.A1 = test: Confirmation of image-based Screening Assay for Inhibitors of Phagocytosis. [Related pubchem assays (depositor defined):AID1029, AID1643]; assay type: functional, cell-based; settings: Mus musculus
[20] = target: T7, Tyrosine-protein phosphatase non-receptor type 22; test: LYP (PTPN22) phosphatase inhibitor potency, SAR follow-up, biochemical, pCAP fluorogenic substrate, fluorescence, set 3 (AID 449727); assay type: functional

Q: With `CCOC(=O)N1CCN(C(S)=Nc2ccccc2C)CC1` as the molecule, how does the EC50 (Troponin, cardiac muscle) read?
A: > 71.4 µM (inactive)

Q: For `O=C(Nc1cc(S(=O)(=O)N2CCOCC2)ccc1N1CCCC1)c1cc2c(s1)CCCC2`, which EC50 (Cannabinoid receptor 2 [1]) is on record?
A: > 32 µM (inactive)

Q: And the IC50 (Cannabinoid receptor 1 [2])?
A: > 32 µM (inactive)

Q: And the EC50 [3]?
A: 1.57 µM (active)

Q: What about the IC50 (Major prion protein) of the same molecule?
A: 5.47 µM (active)

Q: And the IC50 (Cannabinoid receptor 2 [4])?
A: > 32 µM (inactive)

Q: And the EC50 (Cannabinoid receptor 1 [5])?
A: > 32 µM (inactive)

Q: What about the IC50 (cells) of the same molecule?
A: > 138 µM (inactive)

Q: And the EC50 [6]?
A: > 32 µM (inactive)

Q: What about the IC50 [7] of the same molecule?
A: > 32 µM (inactive)

Q: Which results are given for `CNC(=O)c1cc2c(=O)n3ccccc3nc2n(C2CCCC2)c1=N`?
A: EC50 (Cannabinoid receptor 2 [8]): 2.52 µM (active); IC50 (Cannabinoid receptor 1 [9]): > 32 µM (inactive); IC50 [10]: > 32 µM (inactive); EC50 [11]: > 32 µM (inactive); IC50 (Cannabinoid receptor 2 [12]): > 32 µM (inactive); EC50 (Cannabinoid receptor 1 [13]): > 32 µM (inactive); IC50 [14]: 5.92 µM (active)

Q: With `Cc1nn(Cc2ccccc2)c(Cl)c1C(=O)OC(C)C(=O)NCc1cccs1` (centres undefined) as the molecule, how does the EC50 [15] read?
A: > 50 µM (inactive)

Q: What does the source list for `CCOC(=O)C(C)Oc1cccc2c(=O)n(CC(=O)NCc3ccc4c(c3)OCO4)ccc12` (centres undefined)?
A: IC50 [16]: 11.4 µM (active); IC50 [17]: > 100 µM (inactive); IC50 [18]: > 80 µM (inactive); IC50 [19]: > 100 µM (inactive); IC50 (J774.A1): 4.93 µM (active); IC50 [20]: > 100 µM (inactive)
